Values quoted from earlier work in US12605354B2, “Azelaic acid esters in the treatment or prevention of dyslipidemia and associated conditions” (NEW FRONTIER LABS, LLC, priority 2020, dated 2026).
Like-named read-outs stand apart in the source and are kept apart here.

How the values were obtained:
[1] = tested on: 16 subjects with Type II diabetes; details: cited from earlier work
[2] = 15-year study [49]; cited from earlier work
[3] = tested on: statin-naïve individuals; details: 1 year (T2D), reference 52, cited from earlier work; for LDL/HDL, decrease: statin-naïve individuals
[4] = tested on: 4750 prediabetic subjects; details: cited from earlier work
[5] = cited from earlier work; for Hypoglycemia: reference 51
[6] = 28-day study in 16 subjects with Type II diabetes [47]
[7] = 8 weeks (T2D risk), reference 48
[8] = meta-analysis, trials of at least 8 weeks, compared to placebo or no treatment [48]

CN(C)C(=N)N=C(N)N [Metformin, metformin]
Cholesterol/HDL, decrease ([1]; 4 weeks (T2D), reference 47): 9.2% decrease
fasting glucose [1, 6]: reduced fasting glucose
insulin levels [1, 6]: no effect on insulin levels
reduction of the incidence of diabetes compared to placebo [2]: 17%
LDL/HDL, decrease [3]: 11.7% decrease
LDL/HDL, decrease ([3]; listed as metformin): 11.7%
HDL, increase [3]: 5% increase
LDL, decrease [3]: 5.6% decrease
Fasting insulin, decrease [4, 7]: 14.4% decrease
Fasting plasma glucose, decrease [4, 7]: 4.5% decrease
change of LDL [4, 8]: −5.6%
change of fasting glucose [4, 8]: −4.5%
change of fasting insulin [4, 8]: −14.4%
increase of HDL [4, 8]: 5.0%
patients who cannot tolerate metformin at all [5, 53]: 5%
users with severe gastrointestinal side effects [5, 53]: 1 of 4
Hypoglycemia ([5]; multiple studies): infrequent event
Hypoglycemia ([5]; multiple studies, listed as metformin): Neither metformin nor DEA administration as presented herein induced hypoglycemia
Side effects ([5]; multiple studies, reference 53): severe gastrointestinal effects
